# Source: US20060211751A1, “Zolmitriptan crystal forms” (priority 2004, published 2006)
# Experiments:
# Assay type in all cases: physicochemical
# [1] = Transformation by pressing (crystal form before and after pressing); details: for Crystal Form after pressing: 100 mg pressed with approximately 1300 psi during 2 minutes
# [2] = Polymorphic stability when maintained at room temperature
# [3] = Transformation by slurry in other solvents (n-hexane, toluene, water) and drying, form determined by XRD
# Excerpt: Similarly to example 6 Zolmitriptan samples were slurried from other solvents or solvent systems after dissolution and precipitation from a specific solvent.
# [4] = Transformation by heating and slurry in acetone-water mixture (20:80), form determined by XRD
# Protocol: A sample of zolmitriptan (6 g) was placed in a glass flask with solvent and heated to reflux until the zolmitriptan dissolved. The zolmitriptan was cooled to room temperature while stirring, and left at 4° C. overnight. The mixture was filtered and the solid obtained was divided in half. One half of the solid was labeled “wet” and the other half was dried in a vacuum oven at about 60° C.-70° C. overnight and labeled as “dried.”
# One third of the wet portion of each sample was separated for XRD, and marked as “_w” . One third of the dried portion of each sample was separated for XRD, and marked as “_d” . For example, “1w” refers to the wet portion of sample 1 analyzed by XRD before slurry in acetone/water, and “1d” refers to the dried portion of sample 1 analyzed by XRD before slurry in acetone/water.
# The remaining two-thirds of the wet sample was weighed, placed in a glass flask containing 10 v/w of acetone:water (20:80), stirred for about 30 minutes at room temperature, and left at about 4° C. overnight. The mixture was filtered and the solid obtained was divided in half. One half was labeled “_w-ac-w.” The other half was dried in a vacuum oven at about 60° C.-70° C. overnight, and labeled “_w-ac-d.” For example, “1w-ac-w” refers to the portion of the wet sample resulting from slurry in acetone/water, while “1w-ac-d” refers to the portion of the wet sample resulting from slurry in acetone/water that was dried.
# Likewise, the remaining two-thirds of the dry sample was weighed, placed in a glass flask containing 10 v/w of acetone:water (20:80), stirred for about 30 minutes at room temperature, and left at about 4° C. overnight. The mixture was filtered and the solid obtained was divided in half. One half was labeled “_d-ac-w.” The other half was dried in a vacuum oven at about 60° C.-70° C. overnight, and labeled “_d-ac-d.” For example, “1d-ac-w” refers to the portion of the dry sample resulting from slurry in acetone/water, while “1d-ac-d” refers to the portion of the dry sample resulting from slurry in acetone/water that was then dried.
# [5] = immersed in 10 v/w n-Hexane, filtered, sucked ½ hour on Buchner
# [6] = Toluene, dried 63 °C under reduced pressure
# [7] = Water, dried 63 °C under reduced pressure
# [8] = immersed in 10 v/w Toluene, filtered, sucked ½ hour on Buchner
# [9] = immersed in 10 v/w Water, filtered, sucked ½ hour on Buchner
# [10] = n-Hexane, dried 63 °C under reduced pressure
structure (smiles),measurement,setting,value
CN(C)CCc1c[nH]c2ccc(C[C@H]3COC(=O)N3)cc12 [Form D],Crystal Form after pressing,[1],Form D
same,transformation to other crystal form on pressing,[1],not transform to other crystal form
same,polymorphic stability (conversion to Form A),[2],do not convert to Form A
CN(C)CCc1c[nH]c2ccc(C[C@H]3COC(=O)N3)cc12 [Form E],XRD sample (form after treatment),"[3]; Toluene, dried 63 °C under reduced pressure, listed as E",Form K
same,XRD sample (form after treatment),"[3]; immersed in 10 v/w Water, filtered, sucked ½ hour on Buchner, listed as E",Form A
same,XRD sample (form after treatment),[3]; [5],Form D
same,XRD sample (form after treatment),"[3]; n-Hexane, dried 63 °C under reduced pressure, listed as E",Form A + ˜30% D
CN(C)CCc1c[nH]c2ccc(C[C@H]3COC(=O)N3)cc12 [Form F],Crystal Form after pressing,[1],Form F
same,transformation to other crystal form on pressing,[1],not transform to other crystal form
CN(C)CCc1c[nH]c2ccc(C[C@H]3COC(=O)N3)cc12 [Form G],Crystal Form after pressing,[1],Form G
same,transformation to other crystal form on pressing,[1],not transform to other crystal form
same,polymorphic stability (conversion to Form A),[2],do not convert to Form A
same,XRD sample (form after treatment),[3]; [6],Form A + ˜10% K
same,XRD sample (form after treatment),[3]; [7],Form A
same,XRD sample (form after treatment),[3]; [8],Form K
same,XRD sample (form after treatment),[3]; [9],Form A
same,XRD sample (form after treatment),[3]; [5],Form D
same,XRD sample (form after treatment),[3]; [10],Essent.Am D
CN(C)CCc1c[nH]c2ccc(C[C@H]3COC(=O)N3)cc12 [Form H],Crystal Form after pressing,[1],Form H
same,transformation to other crystal form on pressing,[1],not transform to other crystal form
same,polymorphic stability (conversion to Form A),[2],do not convert to Form A
CN(C)CCc1c[nH]c2ccc(C[C@H]3COC(=O)N3)cc12 [Form I],Crystal Form after pressing,[1],Form I
same,transformation to other crystal form on pressing,[1],not transform to other crystal form
same,polymorphic stability (conversion to Form A),[2],do not convert to Form A
same,XRD sample (form after treatment),[3]; [6],Form A
same,XRD sample (form after treatment),[3]; [7],Form A
same,XRD sample (form after treatment),[3]; [8],Form K
same,XRD sample (form after treatment),[3]; [9],Form A
same,XRD sample (form after treatment),[3]; [5],Form D
same,XRD sample (form after treatment),[3]; [10],Form A
CN(C)CCc1c[nH]c2ccc(C[C@H]3COC(=O)N3)cc12 [Form J],Crystal Form after pressing,[1],Form J
same,transformation to other crystal form on pressing,[1],not transform to other crystal form
same,polymorphic stability (conversion to Form A),[2],do not convert to Form A
CN(C)CCc1c[nH]c2ccc(C[C@H]3COC(=O)N3)cc12 [Form K],Crystal Form after pressing,[1],Form K
same,transformation to other crystal form on pressing,[1],not transform to other crystal form
same,polymorphic stability (conversion to Form A),[2],do not convert to Form A
same,XRD sample (form after treatment),[3]; [6],Form A
same,XRD sample (form after treatment),[3]; [7],Form A
same,XRD sample (form after treatment),[3]; [8],Form K
same,XRD sample (form after treatment),[3]; [9],Form A + ˜10% K
same,XRD sample (form after treatment),[3]; [5],Form D
same,XRD sample (form after treatment),[3]; [10],Form A
CN(C)CCc1c[nH]c2ccc(C[C@H]3COC(=O)N3)cc12 [Form M],Crystal Form after pressing,[1],Form M
same,transformation to other crystal form on pressing,[1],not transform to other crystal form
CN(C)CCc1c[nH]c2ccc(C[C@H]3COC(=O)N3)cc12 [Form O],Crystal Form after pressing,[1],Form O
same,transformation to other crystal form on pressing,[1],not transform to other crystal form
CN(C)CCc1c[nH]c2ccc(C[C@H]3COC(=O)N3)cc12 [Form P],Crystal Form after pressing,[1],Form P
same,transformation to other crystal form on pressing,[1],not transform to other crystal form
same,polymorphic stability (conversion to Form A),[2],do not convert to Form A
CN(C)CCc1c[nH]c2ccc(C[C@H]3COC(=O)N3)cc12 [Form R],XRD sample (form after treatment),[3]; [7],Form A
same,XRD sample (form after treatment),[3]; [8],Form K
same,XRD sample (form after treatment),[3]; [9],Form A
same,XRD sample (form after treatment),[3]; [5],Form D
same,XRD sample (form after treatment),"[3]; n-Hexane, dried 63 °C under reduced pressure, listed as R",Essent.Am D
CN(C)CCc1c[nH]c2ccc(C[C@H]3COC(=O)N3)cc12 [Form T],Crystal Form after pressing,[1],Form T
same,transformation to other crystal form on pressing,[1],not transform to other crystal form
CN(C)CCc1c[nH]c2ccc(C[C@H]3COC(=O)N3)cc12 [Sample 1],Resulting Crystal Form,"[4]; _d-ac-d: dried sample slurried in acetone:water (20:80), then dried in vacuum oven 60-70 °C overnight",Form A
same,Resulting Crystal Form,"[4]; _w-ac-w: wet sample slurried in 10 v/w acetone:water (20:80), 30 min room temperature, 4 °C overnight, filtered, not dried, listed as 1w-ac-w",Form A
same,Resulting Crystal Form,"[4]; _w: wet portion after crystallization, before slurry in acetone/water, listed as 1w",Form A
CN(C)CCc1c[nH]c2ccc(C[C@H]3COC(=O)N3)cc12 [Sample 2],Resulting Crystal Form,"[4]; _d-ac-w: dried sample slurried in 10 v/w acetone:water (20:80), 30 min room temperature, 4 °C overnight, filtered, not dried",Form A
same,Resulting Crystal Form,"[4]; _d: portion dried in vacuum oven 60-70 °C overnight, before slurry in acetone/water",Form A
same,Resulting Crystal Form,"[4]; _w-ac-d: wet sample slurried in acetone:water (20:80), then dried in vacuum oven 60-70 °C overnight",Form A
same,Resulting Crystal Form,"[4]; _w-ac-w: wet sample slurried in 10 v/w acetone:water (20:80), 30 min room temperature, 4 °C overnight, filtered, not dried, listed as 2w-ac-w",Form A
same,Resulting Crystal Form,"[4]; _w: wet portion after crystallization, before slurry in acetone/water, listed as 2w",Form Q
CN(C)CCc1c[nH]c2ccc(C[C@H]3COC(=O)N3)cc12 [Sample 3],Resulting Crystal Form,"[4]; _w-ac-w: wet sample slurried in 10 v/w acetone:water (20:80), 30 min room temperature, 4 °C overnight, filtered, not dried, listed as 3w-ac-w",Form A
same,Resulting Crystal Form,"[4]; _w: wet portion after crystallization, before slurry in acetone/water, listed as 3w",Form G
CN(C)CCc1c[nH]c2ccc(C[C@H]3COC(=O)N3)cc12 [Sample 4],Resulting Crystal Form,"[4]; _w-ac-w: wet sample slurried in 10 v/w acetone:water (20:80), 30 min room temperature, 4 °C overnight, filtered, not dried, listed as 4w-ac-w",Form A
same,Resulting Crystal Form,"[4]; _w: wet portion after crystallization, before slurry in acetone/water, listed as 4w",Form A
CN(C)CCc1c[nH]c2ccc(C[C@H]3COC(=O)N3)cc12 [Sample 5],Resulting Crystal Form,"[4]; _w-ac-w: wet sample slurried in 10 v/w acetone:water (20:80), 30 min room temperature, 4 °C overnight, filtered, not dried, listed as 5w-ac-w",Form A
same,Resulting Crystal Form,"[4]; _w: wet portion after crystallization, before slurry in acetone/water, listed as 5w",Form D
CN(C)CCc1c[nH]c2ccc(C[C@H]3COC(=O)N3)cc12 [Sample 6],Resulting Crystal Form,"[4]; _w-ac-w: wet sample slurried in 10 v/w acetone:water (20:80), 30 min room temperature, 4 °C overnight, filtered, not dried, listed as 6w-ac-w",Form A
same,Resulting Crystal Form,"[4]; _w: wet portion after crystallization, before slurry in acetone/water, listed as 6w",Form S
CN(C)CCc1c[nH]c2ccc(C[C@H]3COC(=O)N3)cc12 [Sample 7],Resulting Crystal Form,"[4]; _w-ac-w: wet sample slurried in 10 v/w acetone:water (20:80), 30 min room temperature, 4 °C overnight, filtered, not dried, listed as 7w-ac-w",Form K + ˜30% A
same,Resulting Crystal Form,"[4]; _w: wet portion after crystallization, before slurry in acetone/water, listed as 7w",Form K
CN(C)CCc1c[nH]c2ccc(C[C@H]3COC(=O)N3)cc12 [Sample 8],Resulting Crystal Form,"[4]; _w-ac-w: wet sample slurried in 10 v/w acetone:water (20:80), 30 min room temperature, 4 °C overnight, filtered, not dried, listed as 8w-ac-w",Form K + ˜30% A
same,Resulting Crystal Form,"[4]; _w: wet portion after crystallization, before slurry in acetone/water, listed as 8w",Form K
